Tests used:
[1] = Encapsulation efficiency (% EE), ribogreen; type: physicochemical; conditions: nanoparticles, compound:DSPC:cholesterol:PEG 2 50:10:38:2 mol %
Text: (§1) The efficiency of encapsulation of a therapeutic and/or prophylactic describes the amount of therapeutic and/or prophylactic that is encapsulated or otherwise associated with a lipid nanoparticle (e.g., an empty LNP or a loaded LNP) after preparation, relative to the initial amount provided. The encapsulation efficiency is desirably high (e.g., close to 100%). The encapsulation efficiency may be measured, for example, by comparing the amount of therapeutic and/or prophylactic in a solution containing the lipid nanoparticle (e.g., an empty LNP or a loaded LNP) before and after breaking up the lipid nanoparticle (e.g., an empty LNP or a loaded LNP) with one or more organic solvents or detergents. Fluorescence may be used to measure the amount of free therapeutic and/or prophylactic (e.g., RNA) in a solution.
(§2) Nanoparticle compositions including a therapeutic and/or prophylactic can be optimized according to the selection of a compound according to Formula (I), (I-1), (A), (A-1), (A-1a), or (A-1b), the selection of additional lipids, the amount of each lipid in the lipid component, and the wt:wt ratio of the lipid component to the therapeutic and/or prophylactic. Nanoparticle compositions including DSPC as a phospholipid, cholesterol as a structural lipid, PEG 2 as a PEG lipid, and a compound according to Formula (I), (I-1), (A), (A-1), (A-1a), or (A-1b) were prepared. The ratios of the lipids were 50:10:38:2 mol % for the lipid according to Formula (I), (I-1), (A), (A-1), (A-1a), or (A-1b):DSPC:cholesterol:PEG 2. […]

[2] = Apparent LNP pKa by 2-(p-toluidino)-6-napthalene sulfonic acid (TNS) assay; type: physicochemical; conditions: pH at half of maximum fluorescence
[3] = Size and polydispersity index of nanoparticles comprising compounds of the disclosure; type: physicochemical; conditions: compound:DSPC:cholesterol:PEG 2 50:10:38:2 mol %
Text: Lipid nanoparticles (e.g., empty LNPs or loaded LNPs) may be characterized by a variety of methods. For example, microscopy (e.g., transmission electron microscopy or scanning electron microscopy) may be used to examine the morphology and size distribution of a nanoparticle composition. Dynamic light scattering or potentiometry (e.g., potentiometric titrations) may be used to measure zeta potentials. Dynamic light scattering may also be utilized to determine particle sizes. Instruments such as the Zetasizer Nano ZS (Malvern Instruments Ltd, Malvern, Worcestershire, UK) may also be used to measure multiple characteristics of a nanoparticle composition, such as particle size, polydispersity index, and zeta potential.
as §2

[4] = Encapsulation efficiency (% EE), ribostar; type: physicochemical; conditions: nanoparticles, compound:DSPC:cholesterol:PEG 2 50:10:38:2 mol %
Text: as §1, with “solution. For the lipid nanoparticles (e.g., empty LNPs or loaded LNPs) described herein, the encapsulation efficiency of a therapeutic and/or prophylactic may be at least 50%, for example 50%, 55%, 60%, 65%, 70%, 75%, 80%, 85%, 90%, 91%, 92%, 93%, 94%, 95%, 96%, 97%, 98%, 99%, or 100%. In some embodiments, the encapsulation efficiency may be at least 80%. In certain embodiments, the encapsulation efficiency may be at least 90%. In some embodiments, the encapsulation efficiency of the therapeutic and/or prophylactic agent is between 80% and 100%.” for “solution.”
Nanoparticle compositions including a therapeutic and/or prophylactic can be optimized according to the selection of a compound according to Formula (I), (I-1), (A), (A-1), (A-1a), or (A-1b), the selection of additional lipids, the amount of each lipid in the lipid component, and the wt:wt ratio of the lipid component to the therapeutic and/or prophylactic. Nanoparticle compositions including DSPC as a phospholipid, cholesterol as a structural lipid, PEG 2 as a PEG lipid, and a compound according to Formula (I), (I-1), (A), (A-1), (A-1a), or (A-1b) were prepared. The ratios of the lipids were 50:10:38:2 mol % for the lipid according to Formula (I), (I-1), (A), (A-1), (A-1a), or (A-1b):DSPC:cholesterol:PEG 2. Tables 2a, 2b, and 3-5 summarize the characteristics of the formulations.
Table 4 summarizes the surface hydrophobicity of nanoparticles comprising compounds of the disclosure as determined by Generalized Polarization by Laurdan (GPL). Laurdan, a fluorescent aminonaphthalene ketone lipid, was post-inserted into the nanoparticle surface and the fluorescence spectrum of Laurdan was collected to determine the normalized Generalized Polarization (N-GP). Higher N-GP indicates a less polar surface.

hEPO mRNA = experiment: hEPO expression in CD1-mice after intravenous administration of nanoparticles; type: in vivo; conditions: 6 h after intravenous administration, mRNA dose 0.5 mg/kg, N:P 3.4, compound:DSPC:cholesterol:PEG 2 50:10:38:2
Protocol: The expression of hEPO mRNA in CD1-mice was measured 6 h after intravenous administration of nanoparticles comprising a compound of the disclosure, DSPC, cholesterol, and PEG 2 in a ratio of 50:10:38:2. […] Each composition was dosed to 8 animals at an mRNA dose of 0.5 mg/kg.

serum protein ApoE = experiment: ApoE binding affinity of nanoparticles (bead binding, flow cytometry)
Protocol: The ApoE binding affinity, i.e., the affinity of binding between nanoparticles comprising compounds of the disclosure and the serum protein ApoE, was determined by binding the nanoparticles to beads, then incubating them with known quantities of […]. The quantity of protein bound to the nanoparticle was then determined by flow cytometry.

[5] = Heparin-sepharose binding of nanoparticles
[6] = Surface hydrophobicity by Generalized Polarization by Laurdan (GPL); type: physicochemical; conditions: normalized Generalized Polarization by Laurdan; higher N-GP = less polar surface
Summary of the method: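 LNPs contained ionizable lipid:DSPC:cholesterol:PEG lipid at 50:10:38:2 mol %. Laurdan was post-inserted into the particle surface, and its fluorescence spectrum gave normalized generalized polarization (N-GP); higher N-GP means a less polar surface.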

mRNA = mRNA integrity in nanoparticles by RP-IP HPLC (UV 260 nm); type: physicochemical
Protocol: Integrity of mRNA comprised in nanoparticles of the disclosure, i.e., the percentages of intact mRNA, mRNA adducts, and mRNA hydrolysis products, […] (Reverse-Phase Ion-Pairing HPLC) using UV detection at 260 nm. Total purity and impurities are calculated as percent peak area.

[7] = mRNA integrity after 2 weeks at 25° C., percent peak area
[8] = mRNA integrity at t = 0, percent peak area

What does the source list for `CCCCCCCCC(CC)OC(=O)CCCCCCCN(CCCCCCCC(=O)OC(CCCCCCCC)CCCCCCCC)CCCNc1n[s+]([O-])nc1NC` (stereo not drawn) [Compound 1, Heptadecan-9-yl 8-((3-((4-(methylamino)-1-oxido-1,2,5-thiadiazol-3-yl)amino)propyl)(8-oxo-8-(undecan-3-yloxy)octyl)amino)octanoate]?
% EE (ribogreen) [1]: 97.5%; LogIC50 (pKa) [2]: 6.94; PDI [3]: 0.131; Size (nm) [3]: 67.6 nm; % EE (ribostar) [4]: 61.4%; Avg. [hEPO] mIU/mL (hEPO mRNA): 6.38E+05 mIU/mL; Median Fluorescence Intensity, PE (serum protein ApoE): 182846; Relative % Area Bound by LNP [5]: 0%

Which “% EE (ribogreen)” value [1] does the source give for `CCCCCCCCC(CC)OC(=O)CCCCCCCN(CCCCCCCC(=O)OC(CCCCCCCC)CCCCCCCC)CCCNC1=NC(=O)N(C)C1=O` (stereo not drawn) [Compound 9, Heptadecan-9-yl 8-((3-((1-methyl-2,5-dioxo-2,5-dihydro-1H-imidazol-4-yl)amino)propyl)(8-oxo-8-(undecan-3-yloxy)octyl)amino)octanoate] here?
Its value is 92.9%.

What about the PDI [3] of the same molecule?
Its PDI is 0.154.

What about the “Size (nm)” value [3] of the same molecule?
Its value is 77.1 nm.

What about the “% EE (ribostar)” value [4] of the same molecule?
Its value is 68.9%.

And the “Avg. [hEPO] mIU/mL” value (hEPO mRNA)?
Its value is 5.32E+05 mIU/mL.

What about the “Median Fluorescence Intensity, PE” value (serum protein ApoE) of the same molecule?
Its value is 56008.

What about the “Relative % Area Bound by LNP” value [5] of the same molecule?
The value was 0%.

With `CCCCCCCCC(CC)OC(=O)CCCCCCCN(CCCCCCCC(=O)OC(CCCCCCCC)CCCCCCCC)CCCNc1ncccc1NC` (stereo not drawn) [Compound 34, Heptadecan-9-yl 8-((3-((3-(methylamino)pyridin-2-yl)amino)propyl)(8-oxo-8-(undecan-3-yloxy)octyl)amino)octanoate] as the molecule, how does the “Average N-GP” value [6] read?
Its value is 1.001.

What about the “% EE (ribogreen)” value [1] of the same molecule?
Its value is 75.4%.

What about the “LogIC50 (pKa)” value [2] of the same molecule?
The value was 6.87.

What about the PDI [3] of the same molecule?
Its PDI is 0.211.

And the “Size (nm)” value [3]?
The value was 108.2 nm.

And the “% EE (ribostar)” value [4]?
The value was 41.6%.

What about the Adduct (mRNA; [7]) of the same molecule?
The Adduct was 7.9%.

What about the “Hydrolysis Product” value (mRNA; [7]) of the same molecule?
Its value is 51.4%.

What about the Intact (mRNA; [7]) of the same molecule?
The Intact was 40.8%.

And the Adduct (mRNA; [8])?
The Adduct was 3.8%.

What about the “Hydrolysis Product” value (mRNA; [8]) of the same molecule?
Its value is 36.4%.

What about the Intact (mRNA; [8]) of the same molecule?
Its Intact is 59.8%.

And the “Avg. [hEPO] mIU/mL” value (hEPO mRNA)?
The value was 8.06E+05 mIU/mL.

What about the “Median Fluorescence Intensity, PE” value (serum protein ApoE) of the same molecule?
Its value is 3133.

And the “Relative % Area Bound by LNP” value [5]?
The value was 2.90%.

For `CCCCCCCCC(CC)OC(=O)CCCCCCCN(CCCCCCCC(=O)OC(CCCCCCCC)CCCCCCCC)CCCNC(=O)C1(C)CC1` (stereo not drawn) [Compound 60, Heptadecan-9-yl 8-((3-(1-methylcyclopropane-1-carboxamido)propyl)(8-oxo-8-(undecan-3-yloxy)octyl)amino)octanoate], which “Average N-GP” value [6] is on record?
The value was 1.055.

What about the “% EE (ribogreen)” value [1] of the same molecule?
Its value is 41.5%.

And the “LogIC50 (pKa)” value [2]?
Its value is 6.69.

And the PDI [3]?
Its PDI is 0.192.

And the “Size (nm)” value [3]?
The value was 90.8 nm.

What about the “% EE (ribostar)” value [4] of the same molecule?
Its value is 20.5%.

What about the Adduct (mRNA; [7]) of the same molecule?
The Adduct was 8.5%.

And the “Hydrolysis Product” value (mRNA; [7])?
The value was 77.2%.

And the Intact (mRNA; [7])?
Its Intact is 14.3%.

What about the Adduct (mRNA; [8]) of the same molecule?
Its Adduct is 6.0%.

What about the “Hydrolysis Product” value (mRNA; [8]) of the same molecule?
Its value is 51.8%.

What about the Intact (mRNA; [8]) of the same molecule?
Its Intact is 42.2%.

And the “Avg. [hEPO] mIU/mL” value (hEPO mRNA)?
Its value is 7.34E+05 mIU/mL.

What about the “Median Fluorescence Intensity, PE” value (serum protein ApoE) of the same molecule?
The value was 41093.

And the “Relative % Area Bound by LNP” value [5]?
The value was 5.65%.

With `CCCCCCCCC(CC)OC(=O)CCCCCCCN(CCCCCCCC(=O)OC(CCCCCCCC)CCCCCCCC)CCCNS(=O)(=O)CC` (stereo not drawn) [Compound 66, Heptadecan-9-yl 8-((3-(ethylsulfonamido)propyl)(8-oxo-8-(undecan-3-yloxy)octyl)amino)octanoate] as the molecule, how does the “Average N-GP” value [6] read?
Its value is 0.837.

And the “% EE (ribogreen)” value [1]?
The value was 91.8%.

What about the “LogIC50 (pKa)” value [2] of the same molecule?
Its value is 6.64.

And the PDI [3]?
The PDI was 0.125.

And the “Size (nm)” value [3]?
Its value is 70.1 nm.

And the “% EE (ribostar)” value [4]?
The value was 59.1%.

And the Adduct (mRNA; [7])?
Its Adduct is 27.2%.

And the “Hydrolysis Product” value (mRNA; [7])?
Its value is 32.9%.

What about the Intact (mRNA; [7]) of the same molecule?
The Intact was 39.9%.

What about the Adduct (mRNA; [8]) of the same molecule?
The Adduct was 13.1%.

What about the “Hydrolysis Product” value (mRNA; [8]) of the same molecule?
The value was 32.9%.

And the Intact (mRNA; [8])?
The Intact was 54.0%.

What about the “Avg. [hEPO] mIU/mL” value (hEPO mRNA) of the same molecule?
Its value is 1.57E+06 mIU/mL.

And the “Median Fluorescence Intensity, PE” value (serum protein ApoE)?
The value was 112648.

What about the “Relative % Area Bound by LNP” value [5] of the same molecule?
Its value is 3.54%.

Which “Average N-GP” value [6] does the source give for `CCCCCCCCC(CC)OC(=O)CCCCCCCN(CCCCCCCC(=O)OC(CCCCCCCC)CCCCCCCC)CCCNS(=O)(=O)C1CC1` (stereo not drawn) [Compound 67, Heptadecan-9-yl 8-((3-(cyclopropanesulfonamido)propyl)(8-oxo-8-(undecan-3-yloxy)octyl)amino)octanoate] here?
The value was 0.890.

And the “% EE (ribogreen)” value [1]?
Its value is 84.1%.

And the “LogIC50 (pKa)” value [2]?
Its value is 6.67.

What about the PDI [3] of the same molecule?
The PDI was 0.123.

And the “Size (nm)” value [3]?
The value was 71.7 nm.

And the “% EE (ribostar)” value [4]?
The value was 48.5%.

And the Adduct (mRNA; [7])?
The Adduct was 26.3%.

And the “Hydrolysis Product” value (mRNA; [7])?
The value was 39.0%.

And the Intact (mRNA; [7])?
The Intact was 34.7%.

What about the Adduct (mRNA; [8]) of the same molecule?
Its Adduct is 10.1%.

What about the “Hydrolysis Product” value (mRNA; [8]) of the same molecule?
The value was 32.8%.

What about the Intact (mRNA; [8]) of the same molecule?
Its Intact is 57.1%.

And the “Avg. [hEPO] mIU/mL” value (hEPO mRNA)?
Its value is 1.43E+06 mIU/mL.

What about the “Median Fluorescence Intensity, PE” value (serum protein ApoE) of the same molecule?
Its value is 146715.

What about the “Relative % Area Bound by LNP” value [5] of the same molecule?
The value was 6.69%.

Source: patent US20230000773A1, “NOVEL HEADGROUP LIPID COMPOUNDS AND COMPOSITIONS FOR INTRACELLULAR DELIVERY OF THERAPEUTIC AGENTS” (ModernaTX, Inc., priority 2019, published 2023)
